US12540141B2, “Spiropyrrolidine derived antiviral agents” (priority 2020, dated 2026)

biological target: SARS-CoV-2 3CL-protease (Severe acute respiratory syndrome coronavirus 2, UniProt P0DTD1); assay: SARS-CoV-2 3C-Like (3CL) Protease Fluorescence Assay (FRET); type: biochemical; settings: SARS-CoV-2 3CL-protease 10 nM, 30 min preincubation at RT, substrate 40 μM

SMILES	IC50
CC(C)(C)C[C@H](NC(=O)c1cc(Cl)c2ncccc2c1)C(=O)N1C[C@]2(C[C@H]1C#N)C(=O)Nc1ccccc12 [Example 138]	< 100 nM
CN(C(=O)c1cn(C2CC2)nn1)[C@@H](Cc1ccccc1)C(=O)N1C[C@]2(C[C@H]1C#N)C(=O)Nc1ccccc12 [Example 359]	< 100 nM
CC(C)C[C@@H](C(=O)N1C[C@]2(C[C@H]1C#N)C(=O)Nc1ccccc12)N(C)C(=O)c1cccc2ccncc12 [Example 293]	< 100 nM
COc1cc(F)c2cc(C(=O)N(C)[C@@H](CC(C)C)C(=O)N3C[C@]4(C[C@H]3C#N)C(=O)Nc3ccccc34)[nH]c2c1F [Example 292]	< 100 nM
CC(C)C[C@@H](C(=O)N1C[C@]2(C[C@H]1C#N)C(=O)Nc1ccccc12)N(C)C(=O)c1cnccn1 [Example 200]	< 100 nM
CN(C(=O)C(F)(F)c1ccccn1)[C@@H](CC(C)(C)F)C(=O)N1C[C@]2(C[C@H]1C#N)C(=O)Nc1ccc(Cl)cc12 [Example 481]	< 100 nM
CC(C)(F)C[C@H](NC(=O)c1cc2ccccn2n1)C(=O)N1C[C@]2(C[C@H]1C#N)C(=O)Nc1ccc(Cl)cc12 [Example 446]	100 to 1000 nM
CC(C)(C)C[C@H](NC(=O)c1cc(OC(F)F)c2ncccc2c1)C(=O)N1C[C@]2(C[C@H]1C#N)C(=O)Nc1ccccc12 [Example 139]	< 100 nM
CC(C)(C)C[C@H](NC(=O)Nc1c(F)cccc1F)C(=O)N1C[C@]2(C[C@H]1C#N)C(=O)Nc1ccccc12 [Example 437]	100 to 1000 nM
CC(C)C[C@@H](C(=O)N1C[C@]2(C[C@H]1C#N)C(=O)Nc1ccccc12)N(C)C(=O)c1cc2c(Cl)c(Cl)ccc2[nH]1 [Example 328]	< 100 nM
CC(C)C[C@@H](C(=O)N1C[C@]2(C[C@H]1C#N)C(=O)Nc1ccc(S(C)(=O)=O)cc12)N(C)C(=O)c1cc2c(F)cc(F)cc2[nH]1 [Example 500, N—((S)-1-((3R,5′S)-5′-cyano-5-(methylsulfonyl)-2-oxospiro[indoline-3,3′-pyrrolidin]-1′-yl)-4-methyl-1-oxopentan-2-yl)-4,6-difluoro-N-methyl-1H-indole-2-carboxamide]	< 100 nM
CN(C(=O)c1cc2cccnc2[nH]1)[C@@H](CC(C)(C)F)C(=O)N1C[C@]2(C[C@H]1C#N)C(=O)Nc1ccccc12 [Example 466]	< 100 nM
CN(C(=O)CN1CCOCC1)[C@@H](CC(C)(C)F)C(=O)N1C[C@]2(C[C@H]1C#N)C(=O)Nc1ccccc12 [Example 536]	100 to 1000 nM
CC(C)N(C(=O)OC(C)(C)C)[C@@H](Cc1ccccc1)C(=O)N1C[C@]2(C[C@H]1C#N)C(=O)Nc1ccccc12 [Example 161]	> 1000 nM
[2H]C([2H])([2H])N(C(=O)c1cc2c(F)cc(F)cc2[nH]1)[C@@H](CC(C)(C)F)C(=O)N1C[C@]2(C[C@H]1C#N)C(=O)Nc1cc(C(F)(F)F)ccc12 [Example 472, N—((S)-1-((3R,5′S)-5′-cyano-2-oxo-6-(trifluoromethyl)spiro[indoline-3,3′-pyrrolidin]-1′-yl)-4-fluoro-4-methyl-1-oxopentan-2-yl)-4,6-difluoro-N-(methyl-d3)-1H-indole-2-carboxamide]	< 100 nM
COc1ccc(Cl)cc1C(=O)N(C)[C@@H](CC(C)C)C(=O)N1C[C@]2(C[C@H]1C#N)C(=O)Nc1ccccc12 [Example 170]	< 100 nM
[2H]C([2H])([2H])N(C(=O)c1nnn2ccccc12)[C@@H](CCCC)C(=O)N1C[C@]2(C[C@H]1C#N)C(=O)Nc1ccccc12 [Example 397]	< 100 nM
CC(C)(C)C[C@H](NC(=O)c1cc2c(F)cc(F)cc2[nH]1)C(=O)N1C[C@]2(C[C@H]1C#N)C(=O)Nc1ccc(Cl)cc12 [Example 448]	< 100 nM
CC(C)C[C@@H](C(=O)N1C[C@]2(C[C@H]1C#N)C(=O)Nc1ccccc12)N(C)C(=O)c1ccc2ccccc2n1 [Example 211]	100 to 1000 nM
CC(C)C[C@@H](C(=O)N1C[C@]2(C[C@H]1C#N)C(=O)Nc1ccccc12)N(C)C(=O)c1cc2ccccn2n1 [Example 247]	100 to 1000 nM
COc1cc(C(=O)N(C)[C@@H](CC(C)C)C(=O)N2C[C@]3(C[C@H]2C#N)C(=O)Nc2ccccc23)nc2ccccc12 [Example 258]	100 to 1000 nM
CC(C)C[C@H](NC(=O)O[C@@H](c1ccccc1)C(F)(F)F)C(=O)N1C[C@]2(C[C@H]1C#N)C(=O)Nc1ccc(F)cc12 [Example 527, (S)-2,2,2-trifluoro-1-phenylethyl ((S)-1-((3R,5′S)-5′-cyano-5-fluoro-2-oxospiro[indoline-3,3′-pyrrolidin]-1′-yl)-4-methyl-1-oxopentan-2-yl)carbamate]	< 100 nM
CC(=O)c1ccc2c(c1)[C@@]1(C[C@@H](C#N)N(C(=O)[C@H](CC(C)C)N(C)C(=O)c3cc4c(F)cc(F)cc4[nH]3)C1)C(=O)N2 [Example 499]	< 100 nM
CC(C)C[C@@H](C(=O)N1C[C@]2(C[C@H]1C#N)C(=O)Nc1ccccc12)N(C)C(=O)c1cc(OC2CC2)c2ncc(C3CC3)cc2c1 [Example 324]	100 to 1000 nM
CCN(CC)CCC(=O)N(C)[C@@H](CC(C)(C)F)C(=O)N1C[C@]2(C[C@H]1C#N)C(=O)Nc1ccccc12 [Example 544]	< 100 nM
CC(C)C[C@@H](C(=O)N1C[C@]2(C[C@H]1C#N)C(=O)Nc1ccccc12)N(C)C(=O)c1cc(F)c2nc(C(F)F)cn2c1 [Example 341]	100 to 1000 nM

SMILES	IC50
CN(C(=O)Cc1cccnc1)[C@@H](CC(C)(C)F)C(=O)N1C[C@]2(C[C@H]1C#N)C(=O)Nc1ccc(Cl)cc12 [Example 476]	< 100 nM
CC(C)C[C@@H](C(=O)N1C[C@]2(C[C@H]1C#N)C(=O)Nc1ccccc12)N(C)C(=O)c1cc2sccc2[nH]1 [Example 209]	< 100 nM
CC(C)C[C@@H](C(=O)N1C[C@]2(C[C@H]1C#N)C(=O)Nc1ccccc12)N(C)C(=O)COc1ccccc1 [Example 229]	< 100 nM
CC(C)C[C@@H](C(=O)N1C[C@]2(C[C@H]1C#N)C(=O)Nc1ccccc12)N(C)C(=O)c1cc2cc(C(F)(F)F)cnc2[nH]1 [Example 488]	< 100 nM
C[C@H](OC(=O)N[C@@H](CC(C)(C)C)C(=O)N1C[C@]2(C[C@H]1C#N)C(=O)Nc1ccc(F)cc12)c1ccc(F)cc1 [Example 524]	< 100 nM
CC(C)C[C@@H](C(=O)N1C[C@]2(C[C@H]1C(=O)CCl)C(=O)Nc1ccccc12)N(C)C(=O)c1cc2c(F)cc(F)c(F)c2[nH]1 [Example 159]	> 1000 nM
CC(C)C[C@@H](C(=O)N1C[C@]2(C[C@H]1C#N)C(=O)Nc1ccccc12)N(C)C(=O)c1cc2cc(F)c(F)c(F)c2[nH]1 [Example 333]	< 100 nM
N#C[C@@H]1C[C@@]2(CN1C(=O)[C@H](CC1CC1)NC(=O)c1cccc(OC(F)(F)F)c1)C(=O)Nc1ccc(F)cc12 [Example 526]	< 100 nM
CC(C)(C)C[C@H](NC(=O)c1cn(-c2ccc(Cl)cc2)nn1)C(=O)N1C[C@]2(C[C@H]1C#N)C(=O)Nc1ccccc12 [Example 140]	100 to 1000 nM
CC(C)(C)C[C@H](NC(=O)c1cn(C2CCC2)nn1)C(=O)N1C[C@]2(C[C@H]1C#N)C(=O)Nc1ccccc12 [Example 148]	< 100 nM
CC(C)C[C@@H](C(=O)N1C[C@]2(C[C@H]1C#N)C(=O)Nc1ccccc12)N(C)C(=O)c1cc2cc(C(F)(F)F)ccc2[nH]1 [Example 326]	< 100 nM
Cc1ccc2c(c1)[C@@]1(C[C@@H](C#N)N(C(=O)[C@H](CC(C)C)N(C)C(=O)OCc3ccccc3)C1)C(=O)N2 [Example 518, benzyl ((S)-1-((3R,5′S)-5′-cyano-5-methyl-2-oxospiro[indoline-3,3′-pyrrolidin]-1′-yl)-4-methyl-1-oxopentan-2-yl)(methyl)carbamate]	< 100 nM
Cc1cc(C)c2ccc(C(=O)N(C)[C@@H](CC(C)C)C(=O)N3C[C@]4(C[C@H]3C#N)C(=O)Nc3ccccc34)nc2c1O [Example 259]	100 to 1000 nM
CC(C)C[C@@H](C(=O)N1C[C@]2(C[C@H]1C#N)C(=O)Nc1ccc(-c3ccn(C(F)F)n3)cc12)N(C)C(=O)c1cc2c(F)cc(F)cc2[nH]1 [Example 514]	< 100 nM
[2H]C([2H])([2H])N(C(=O)c1cc(OC(F)F)c2ncccc2c1)[C@@H](CC(C)(C)C)C(=O)N1C[C@]2(C[C@H]1C#N)C(=O)Nc1ccccc12 [Example 383]	< 100 nM
CCCOC[C@H](NC(=O)c1cc2c(OC)cccc2[nH]1)C(=O)N1C[C@]2(C[C@H]1C#N)C(=O)Nc1ccccc12 [Example 126]	< 100 nM
N#C[C@@H]1C[C@@]2(CN1C(=O)[C@H](CC1CC1)NC(=O)c1c(Cl)cccc1Cl)C(=O)Nc1ccc(Cl)cc12 [Example 525]	< 100 nM
CC(C)C[C@@H](C(=O)N1C[C@]2(C[C@H]1C#N)C(=O)Nc1ccccc12)N(C)C(=O)c1nc2c(F)cc(F)c(F)c2[nH]1 [Example 270]	< 100 nM
CC(C)C[C@@H](C(=O)N1C[C@]2(C[C@H]1C#N)C(=O)Nc1ccccc12)N(C)C(=O)c1cc(Cl)c2ncc(C(F)(F)F)cc2c1 [Example 240]	< 100 nM
CC(C)C[C@@H](C(=O)N1C[C@]2(C[C@H]1C#N)C(=O)Nc1ccccc12)N(C)C(=O)c1ccccc1-c1ccccc1 [Example 261]	100 to 1000 nM
CC(C)C[C@@H](C(=O)N1C[C@]2(C[C@H]1C#N)C(=O)Nc1ccccc12)N(C)C(=O)c1ccc2c(Cl)ccnc2c1 [Example 271]	100 to 1000 nM
CN(C(=O)c1cn(C(C)(C)C)nn1)[C@@H](CC1CC1)C(=O)N1C[C@]2(C[C@H]1C#N)C(=O)Nc1ccccc12 [Example 402]	< 100 nM
CC(C)C[C@@H](C(=O)N1C[C@]2(C[C@H]1C#N)C(=O)Nc1ccccc12)N(C)C(=O)c1cn(-c2ccccc2)nn1 [Example 338]	< 100 nM
CN(C(=O)c1ccn(CC(F)(F)F)n1)[C@@H](Cc1ccccc1)C(=O)N1C[C@]2(C[C@H]1C#N)C(=O)Nc1ccccc12 [Example 360]	< 100 nM
CC(C)C[C@@H](C(=O)N1C[C@]2(C[C@H]1C#N)C(=O)Nc1ccccc12)N(C)C(=O)c1ccc(OC2CC2)c(-c2cccnc2)c1 [Example 343]	< 100 nM
CN(C(=O)C1(c2ccncc2)CC1)[C@@H](CC(C)(C)F)C(=O)N1C[C@]2(C[C@H]1C#N)C(=O)Nc1ccc(Cl)cc12 [Example 473, N—((S)-1-((3R,5′S)-5-chloro-5′-cyano-2-oxospiro[indoline-3,3′-pyrrolidin]-1′-yl)-4-fluoro-4-methyl-1-oxopentan-2-yl)-N-methyl-1-(pyridin-4-yl)cyclopropane-1-carboxamide]	< 100 nM
